From paper PMC7822874, “Chemoprotective antimalarials identified through quantitative high-throughput screening of Plasmodium blood and liver stage parasites” (Scientific Reports, 2021)
Where two headings read alike, the source gives them in different places.

What was measured:
[1] = test system: sporozoites / hepatocytes; settings: cited from earlier work
[2] = test system: P. berghei-ANKA-GFP-LucCON liver stage parasites in HepG2-A16-CD81EGFP cells; assay: P. berghei liver stage Pb-Luc assay, Method 1 (UCSD, 1536-well); type: cell-based, Plasmodium berghei; settings: Plasmodium berghei, Method 1; log10 of molar AC50 from Hill fit; read-out: Log AC50 (converted)
[3] = test system: luciferase-expressing P. berghei liver stage parasites in HepG2 cells; assay: Inhibition of liver-stage development assay (ILSDA), Method 2 (WRAIR, 96-well); type: cell-based, Plasmodium berghei; settings: for AC50: Plasmodium berghei, HepG2, Method 2
[4] = target: T1, Firefly luciferase (Fluc, EC 1.13.12.7) (Photinus pyralis, UniProt P08659); assay: biochemical; design: Firefly luciferase enzyme inhibition counterscreen, luminescence with ATP and D-luciferin; settings: read-out: Log AC50 (the source's name) (converted)
Procedure: (§1) Compound activity against the Photinus pyralis luciferase (Firefly luciferase, Fluc) reporter utilized for the liver stage assay was determined as previously described using 10 nM Fluc (EC 1.13.12.7) and 10 μM of each substrate (ATP and D-luciferin)[68]. […] Luminescence was detected using ViewLux µHTS Microplate Imager. A counter screen of these 4253 compounds was also performed against the Fluc enzyme, as both liver stage methods utilized a transgenic P. berghei Fluc parasite.

[5] = target: T1, Firefly luciferase (Fluc, EC 1.13.12.7); assay: biochemical; design: Firefly luciferase enzyme inhibition counter-screen, luminescence read-out
Procedure: as §1

HepG2 = settings: human, hepg2 cells, 48 h
in vitro = settings: human, hepg2 cells
[6] = test system: T2, Plasmodium falciparum Dd2 asexual blood stage parasites; assay: microbe, parasite or virus in culture; design: species or system P. falciparum Dd2 in human erythrocytes; SYBR Green-I proliferation assay, P. falciparum Dd2 asexual blood stages, growth inhibition; settings: DD2, Erythrocyte, 72 h, SYBR Green-I
T2 construct: Dd2 line, asexual blood stage
Procedure: The P. falciparum parasite Dd2 line was cultured in vitro using standard conditions63. Briefly, parasites were maintained in 2% human O+ erythrocytes (Interstate Blood Bank, Memphis, TN) in RPMI-1640 medium (Life Technologies, Grand Island, NY) supplemented with 0.5% Albumax II (Life Technologies), 2 mM l-glutamine, 50 mg/L hypoxanthine, 25 mM HEPES, 0.225% NaHCO3, 24 mM sodium bicarbonate, and 10 μg/ml gentamycin. Tissue culture flasks and assay plates were incubated at 37 °C under a gas mixture of 5% CO2, 5% O2 and 90% N2. Methods for the SYBR Green-I qHTS, calculation of AC50 (50% of the normalized compound response relative to the maximum response), and definition of curve classes have been described30,64–66. qHTS assays were performed in a single replicate with a 7- to 11-point dose response format, and follow-up screens with 3–11 independent 11-point response assays. Significant differences were assessed using two-sided Student’s t-tests. All HTS assays were stopped and read at 72 h. Percent response values represent relative growth as judged by SYBR Green-I fluorescence intensity values normalized to controls. […] […]

T1 sequence (P08659 whole entry): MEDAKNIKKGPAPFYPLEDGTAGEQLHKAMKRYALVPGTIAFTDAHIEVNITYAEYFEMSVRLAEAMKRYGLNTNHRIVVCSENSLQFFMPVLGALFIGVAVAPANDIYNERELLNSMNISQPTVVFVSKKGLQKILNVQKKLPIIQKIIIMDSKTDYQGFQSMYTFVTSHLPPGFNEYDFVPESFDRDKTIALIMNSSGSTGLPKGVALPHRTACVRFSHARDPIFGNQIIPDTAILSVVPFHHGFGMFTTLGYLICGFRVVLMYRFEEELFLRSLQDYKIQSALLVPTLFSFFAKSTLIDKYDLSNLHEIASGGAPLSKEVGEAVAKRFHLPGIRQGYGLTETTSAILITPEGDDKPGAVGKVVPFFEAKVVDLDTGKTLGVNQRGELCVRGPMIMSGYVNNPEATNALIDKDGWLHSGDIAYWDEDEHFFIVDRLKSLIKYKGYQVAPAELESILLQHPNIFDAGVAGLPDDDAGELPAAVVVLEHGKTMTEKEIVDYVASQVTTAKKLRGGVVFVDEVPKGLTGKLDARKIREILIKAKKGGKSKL

In the case of `CC(C)(CN)c1nc(-c2ccc(Cl)c(O)c2)c(-c2ccncc2)[nH]1` [MMV030084], the IC50 ([1]; added 2 h post sporozoite addition) is given as > 10 µM and the IC50 ([1]; pre-treat hepatocytes 4 h prior to adding sporozoites) is given as 0.199 µM.
In the case of `CCN(CC)CCCN(c1ccccc1)C1Cc2ccccc2C1.Cl` [NCGC00167576-01], the AC50 [2] is reported as 1.58 µM, the “Max Resp (signal direction of the dose response)” value ([3]; Method 2, Decrease = decreasing P. berghei viability with dose, Increase = increasing signal, Inactive = no dose response) is reported as “Decrease” and the AC50 ([3]; Hill fit, 50% of maximum activity response, read-out: AC50) is reported as 7.94 µM. For the same compound, the AC50 ([3]; log10 of molar AC50 from Hill fit, read-out: Log AC50 (converted)) was 7.94 µM, the IC50 [4] was > 57 µM and the AC50 [5] was > 57 µM. For the same compound, the “Log AC50 (M)” value (HepG2) was -4.5643 M and the CC50 at 48 h (in vitro) was 27.3 µM.
For `COc1cc(Cc2cnc(N)nc2N)cc(OC)c1OC` [NCGC00016055-05], the AC50 [6] was > 28 µM.
In the case of `CNC(=O)Oc1cccc(-c2cn3cc(OC(=O)NC)ccc3n2)c1` [MLS000700241-01], the AC50 [6] is reported as > 28 µM.
